What follows are compounds tested against human PDHK2 (hPDHK2) (Homo sapiens (Human), UniProt Q15119) (assay: Inhibitory action of PDHK activity in vitro (kinase reaction, residual PDH activity measured)). Conditions: PDHK inhibitory activity, class symbol of IC50.
Type: biochemical

| SMILES | IC50 [nM] |
| --- | --- |
| CNC(=O)CCn1cc(-c2cccc3c2-c2ccccc2C3(O)C(F)(F)F)cn1 (stereo not drawn) [compound 487] | < 100 |
| CN(C)C(=O)CCn1cc(-c2cccc3c2-c2ccccc2C3(O)C(F)(F)F)cn1 (stereo not drawn) [compound 488] | < 100 |
| CN(CCOc1cc(-c2cnn(C)c2)c2c(c1)C(O)(C(F)(F)F)c1ccccc1-2)C(=O)C(C)(C)CO (stereo not drawn) [compound 489] | < 100 |
| O=C1COCCN1CCOc1ccc2c(c1)C(O)(C(F)(F)F)c1ccccc1-2 (stereo not drawn) [compound 490] | 100 to 1000 |
| O=C1CCCN1CCOc1cc(-c2cn[nH]c2)c2c(c1)C(O)(C(F)(F)F)c1ccccc1-2 (stereo not drawn) [compound 491] | < 100 |
| Cc1cc(-c2cnn(CCO)c2)c2c(c1)C(O)(C(F)(F)F)c1ccccc1-2 (stereo not drawn) [compound 492] | < 100 |
| NC(=O)Cn1cc(-c2cccc3c2-c2ccccc2C3(O)C(F)(F)F)cn1 (stereo not drawn) [compound 493] | < 100 |
| CNC(=O)Cn1cc(-c2cccc3c2-c2ccccc2C3(O)C(F)(F)F)cn1 (stereo not drawn) [compound 494] | < 100 |
| CN(C)C(=O)Cn1cc(-c2cccc3c2-c2ccccc2C3(O)C(F)(F)F)cn1 (stereo not drawn) [compound 495] | 100 to 1000 |
| O=C(COc1cc(-c2cnn(CCO)c2)c2c(c1)C(O)(C(F)(F)F)c1ccccc1-2)N1CCC1 (stereo not drawn) [compound 496] | < 100 |
| O=C(COc1cc(-c2cnn(CCO)c2)c2c(c1)C(O)(C(F)(F)F)c1ccccc1-2)N1CC(O)C1 (stereo not drawn) [compound 497] | < 100 |
| O=C(O)CCCOc1cc(-c2cn[nH]c2)c2c(c1)C(O)(C(F)(F)F)c1ccccc1-2 (stereo not drawn) [compound 498] | < 100 |
| CC(=O)N(C)C[C@@H](O)COc1cc(-c2cnn(C)c2)c2c(c1)C(O)(C(F)(F)F)c1ccccc1-2 (stereo partly drawn) [compound 499] | < 100 |
| CC(=O)N(C)C[C@H](O)COc1cc(-c2cnn(C)c2)c2c(c1)C(O)(C(F)(F)F)c1ccccc1-2 (stereo partly drawn) [compound 500] | < 100 |
| CN(CCOc1cc(-c2cnn(C)c2)c2c(c1)C(O)(C(F)(F)F)c1ccccc1-2)C(=O)C(C)(C)O (stereo not drawn) [compound 501] | < 100 |
| NC(=O)c1cc(OCCN2CCCC2=O)cc2c1-c1ccccc1C2(O)C(F)(F)F (stereo not drawn) [compound 502] | < 100 |
| NC(=O)COc1cc(-c2cn[nH]c2)c2c(c1)C(O)(C(F)(F)F)c1ccccc1-2 (stereo not drawn) [compound 503] | < 100 |

| SMILES | IC50 [nM] |
| --- | --- |
| OCCn1cc(-c2cc(F)cc3c2-c2ccccc2C3(O)C(F)(F)F)cn1 (stereo not drawn) [compound 505] | < 100 |
| NC(=O)Cn1cc(-c2cc(Cl)cc3c2-c2ccccc2C3(O)C(F)(F)F)cn1 (stereo not drawn) [compound 506] | < 100 |
| Cc1cc(-c2cnn(CC(N)=O)c2)c2c(c1)C(O)(C(F)(F)F)c1ccccc1-2 (stereo not drawn) [compound 507] | < 100 |
| NC(=O)Cn1cc(-c2cc(OCCC34CC5CC(CC(C5)C3)C4)cc3c2-c2ccccc2C3(O)C(F)(F)F)cn1 (stereo not drawn) [compound 508] | < 100 |
| OCCn1cc(-c2cc(OCCC34CC5CC(CC(C5)C3)C4)cc3c2-c2ccccc2C3(O)C(F)(F)F)cn1 (stereo not drawn) [compound 509] | < 100 |
| O=C(O)CCCOc1cc(-c2cncnc2)c2c(c1)C(O)(C(F)(F)F)c1ccccc1-2 (stereo not drawn) [compound 510] | < 100 |
| CCNC(=O)Cn1cc(-c2cccc3c2-c2ccccc2C3(O)C(F)(F)F)cn1 (stereo not drawn) [compound 511] | < 100 |
| CNC(=O)Cn1cc(-c2cc(C)cc3c2-c2ccccc2C3(O)C(F)(F)F)cn1 (stereo not drawn) [compound 512] | < 100 |
| CNC(=O)Cn1cc(-c2cc(Cl)cc3c2-c2ccccc2C3(O)C(F)(F)F)cn1 (stereo not drawn) [compound 513] | < 100 |
| CC(C)NC(=O)Cn1cc(-c2cccc3c2-c2ccccc2C3(O)C(F)(F)F)cn1 (stereo not drawn) [compound 514] | < 100 |
| CNC(=O)Cn1cc(-c2cc(F)cc3c2-c2ccccc2C3(O)C(F)(F)F)cn1 (stereo not drawn) [compound 515] | < 100 |
| O=C(O)Cn1cc(-c2cc(Cl)c3c(c2)C(O)(C(F)(F)F)c2ccccc2-3)cn1 (stereo not drawn) [compound 516] | 100 to 1000 |
| O=C(O)CCn1cc(-c2cc(Cl)c3c(c2)C(O)(C(F)(F)F)c2ccccc2-3)cn1 (stereo not drawn) [compound 517] | < 100 |
| Cn1cc(-c2cc(C(N)=O)c3c(c2)C(O)(C(F)(F)F)c2ccccc2-3)cn1 (stereo not drawn) [compound 518] | < 100 |
| Cc1cc(Cl)c2c(c1)C(O)(C(F)(F)F)c1ccccc1-2 (stereo not drawn) [compound 519] | 100 to 1000 |
| NC(=O)CCn1cc(-c2cc(Cl)c3c(c2)C(O)(C(F)(F)F)c2ccccc2-3)cn1 (stereo not drawn) [compound 521] | < 100 |

Same assay, conditions: read-out: PDHK inhibitory activity IC50

| SMILES | IC50 [nM] |
| --- | --- |
| CNC(=O)CCn1cc(-c2cccc3c2-c2ccccc2C3(O)C(F)(F)F)cn1 (stereo not drawn) [compound 487] | 64 |
| CN(C)C(=O)CCn1cc(-c2cccc3c2-c2ccccc2C3(O)C(F)(F)F)cn1 (stereo not drawn) [compound 488] | 52 |
| CN(CCOc1cc(-c2cnn(C)c2)c2c(c1)C(O)(C(F)(F)F)c1ccccc1-2)C(=O)C(C)(C)CO (stereo not drawn) [compound 489] | 22 |
| O=C1COCCN1CCOc1ccc2c(c1)C(O)(C(F)(F)F)c1ccccc1-2 (stereo not drawn) [compound 490] | 223 |
| O=C1CCCN1CCOc1cc(-c2cn[nH]c2)c2c(c1)C(O)(C(F)(F)F)c1ccccc1-2 (stereo not drawn) [compound 491] | 20 |
| Cc1cc(-c2cnn(CCO)c2)c2c(c1)C(O)(C(F)(F)F)c1ccccc1-2 (stereo not drawn) [compound 492] | 40 |
| NC(=O)Cn1cc(-c2cccc3c2-c2ccccc2C3(O)C(F)(F)F)cn1 (stereo not drawn) [compound 493] | 39 |
| CNC(=O)Cn1cc(-c2cccc3c2-c2ccccc2C3(O)C(F)(F)F)cn1 (stereo not drawn) [compound 494] | 44 |
| CN(C)C(=O)Cn1cc(-c2cccc3c2-c2ccccc2C3(O)C(F)(F)F)cn1 (stereo not drawn) [compound 495] | 119 |
| O=C(COc1cc(-c2cnn(CCO)c2)c2c(c1)C(O)(C(F)(F)F)c1ccccc1-2)N1CCC1 (stereo not drawn) [compound 496] | 23 |
| O=C(COc1cc(-c2cnn(CCO)c2)c2c(c1)C(O)(C(F)(F)F)c1ccccc1-2)N1CC(O)C1 (stereo not drawn) [compound 497] | 31 |
| O=C(O)CCCOc1cc(-c2cn[nH]c2)c2c(c1)C(O)(C(F)(F)F)c1ccccc1-2 (stereo not drawn) [compound 498] | 47 |
| CC(=O)N(C)C[C@@H](O)COc1cc(-c2cnn(C)c2)c2c(c1)C(O)(C(F)(F)F)c1ccccc1-2 (stereo partly drawn) [compound 499] | 39 |
| CC(=O)N(C)C[C@H](O)COc1cc(-c2cnn(C)c2)c2c(c1)C(O)(C(F)(F)F)c1ccccc1-2 (stereo partly drawn) [compound 500] | 31 |
| CN(CCOc1cc(-c2cnn(C)c2)c2c(c1)C(O)(C(F)(F)F)c1ccccc1-2)C(=O)C(C)(C)O (stereo not drawn) [compound 501] | 32 |
| NC(=O)c1cc(OCCN2CCCC2=O)cc2c1-c1ccccc1C2(O)C(F)(F)F (stereo not drawn) [compound 502] | 48 |
| NC(=O)COc1cc(-c2cn[nH]c2)c2c(c1)C(O)(C(F)(F)F)c1ccccc1-2 (stereo not drawn) [compound 503] | 45 |

| SMILES | IC50 [nM] |
| --- | --- |
| OCCn1cc(-c2cc(F)cc3c2-c2ccccc2C3(O)C(F)(F)F)cn1 (stereo not drawn) [compound 505] | 46 |
| NC(=O)Cn1cc(-c2cc(Cl)cc3c2-c2ccccc2C3(O)C(F)(F)F)cn1 (stereo not drawn) [compound 506] | 30 |
| Cc1cc(-c2cnn(CC(N)=O)c2)c2c(c1)C(O)(C(F)(F)F)c1ccccc1-2 (stereo not drawn) [compound 507] | 26 |
| NC(=O)Cn1cc(-c2cc(OCCC34CC5CC(CC(C5)C3)C4)cc3c2-c2ccccc2C3(O)C(F)(F)F)cn1 (stereo not drawn) [compound 508] | 48 |
| OCCn1cc(-c2cc(OCCC34CC5CC(CC(C5)C3)C4)cc3c2-c2ccccc2C3(O)C(F)(F)F)cn1 (stereo not drawn) [compound 509] | 51 |
| O=C(O)CCCOc1cc(-c2cncnc2)c2c(c1)C(O)(C(F)(F)F)c1ccccc1-2 (stereo not drawn) [compound 510] | 62 |
| CCNC(=O)Cn1cc(-c2cccc3c2-c2ccccc2C3(O)C(F)(F)F)cn1 (stereo not drawn) [compound 511] | 56 |
| CNC(=O)Cn1cc(-c2cc(C)cc3c2-c2ccccc2C3(O)C(F)(F)F)cn1 (stereo not drawn) [compound 512] | 38 |
| CNC(=O)Cn1cc(-c2cc(Cl)cc3c2-c2ccccc2C3(O)C(F)(F)F)cn1 (stereo not drawn) [compound 513] | 32 |
| CC(C)NC(=O)Cn1cc(-c2cccc3c2-c2ccccc2C3(O)C(F)(F)F)cn1 (stereo not drawn) [compound 514] | 58 |
| CNC(=O)Cn1cc(-c2cc(F)cc3c2-c2ccccc2C3(O)C(F)(F)F)cn1 (stereo not drawn) [compound 515] | 38 |
| O=C(O)Cn1cc(-c2cc(Cl)c3c(c2)C(O)(C(F)(F)F)c2ccccc2-3)cn1 (stereo not drawn) [compound 516] | 110 |
| O=C(O)CCn1cc(-c2cc(Cl)c3c(c2)C(O)(C(F)(F)F)c2ccccc2-3)cn1 (stereo not drawn) [compound 517] | 57 |
| Cn1cc(-c2cc(C(N)=O)c3c(c2)C(O)(C(F)(F)F)c2ccccc2-3)cn1 (stereo not drawn) [compound 518] | 54 |
| Cc1cc(Cl)c2c(c1)C(O)(C(F)(F)F)c1ccccc1-2 (stereo not drawn) [compound 519] | 418 |
| NC(=O)CCn1cc(-c2cc(Cl)c3c(c2)C(O)(C(F)(F)F)c2ccccc2-3)cn1 (stereo not drawn) [compound 521] | 36 |

Source: US8871934B2, “Fluorene compound and pharmaceutical use thereof” (Japan Tobacco Inc., priority 2008, dated 2014)
